Test results taken from patent US20120295982A1, “TREATING HUMAN MALE COPD PATIENTS WITH ORAL BEDORADRINE” (MediciNova, Inc., priority 2011, published 2012).
Structures can show the parent of a compound that is named as a salt.

Assays:
[1] = test system: patients with acute exacerbations of asthma (AEA); assay: Placebo-controlled dose-escalating test of i.v. MN-221 plus standard of care in acute exacerbations of asthma (emergency department); format: in vivo, human
Experimental: This example provides certain preferred oral dosages for treating male COPD patients according to this invention. Initially, the efficacy and safety of administering intravenous MN-221 in combination with standard of care (SOC) for treating acute exacerbations of asthma (AEA) in an emergency department (ED) setting is determined. The testing was performed in a randomized, placebo-controlled, dose-escalating, setting. Twenty nine patients received SOC (nebulized albuterol and ipratropium plus oral corticosteroid). Patients with FEV1≦55% of predicted were randomized to MN-221 (240 or 450 μg infused over 15 min or 1080 μg over 2 hr) or Placebo. MN-221 was administered as follows: 16 μg/min for 15 min (total dose of 240 μg); 30 μg/min for 15 min (total dose of 450 μg); 16 μg/min for 15 min+8 μg/min for 105 min (total dose of 1,080 μg); and 2 patients received total dose of 1,995 μg. Safety, efficacy and PK parameters were monitored hourly throughout a 5 hr treatment period and a 24 hr follow-up visit. Nebulized albuterol (2.5 mg) and/or ipratropium (0.5 mg) was available hourly during screening and treatment phases. Efficacy endpoints included spirometry, dyspnea indexing, albuterol use, and hospitalization rates. The testing was completed with 13 patients (n=13) in SOC+Placebo and 16 patients (n=16) receiving SOC+MN-221; 5 at 240 μg, 6 at 450 μg, and 5 intended for a 1080 μg dose. Patients received Standard of Care (SOC) treatment in addition to adjunctive treatment with MN-221 or placebo. MN-221 was well-tolerated.

[2] = Oral bioavailability in dogs; conditions: dog, in vivo, read-out: Oral F %
[3] = Oral bioavailability in rabbits; conditions: rabbit, in vivo, read-out: Oral F %
[4] = Oral bioavailability in rats; format: in vivo

- bioavailability [2]: 39%
- bioavailability [3]: ≤ 3%
- bioavailability ([4]; rat, in vivo, po, rats, read-out: Oral F %): ≤ 3%
SMILES: CN(C)C(=O)COc1ccc2c(c1)C[C@@H](NC[C@H](O)c1ccc(O)c(CCO)c1)CC2 [MN-221, bedoradrine sulfate]
- heart rate relative to Placebo ([1]; all MN-221 group): minimally elevated
- hospitalization rate ([1]; all MN-221 group (4/16), i.v. plus SOC): 25%
- FEV1 (% predicted), change from baseline in AUC1-5 hr, higher vs. Placebo ([1]; all MN-221 group vs. Placebo): 43%
- tolerability ([1]; i.v. MN-221 240-1080 μg plus standard of care, AEA patients): well-tolerated
- electrocardiograph (ECG) findings ([1]; i.v. MN-221 plus SOC): No abnormal electrocardiograph (ECG) findings were observed
- intensity of the majority of adverse events ([1]; i.v. MN-221 plus SOC): mild to moderate in intensity
- gender difference of oral bioavailability ([4]; orally administered, female vs male rats): greater bioavailability in female rats compared to male rats
